The values below come from BindingDB's records for patent US12344597 (Idorsia Pharmaceuticals, 2025).

This assay has as its target Lysophosphatidic acid receptor 1 (Homo sapiens, UniProt Q92633). Kind of assay: Beta-Arrestin Recruitment Assay. The text has this: The Tango™ EDG2-bla U2OS cells are obtained from Invitrogen. These cells contain the human LPA1 receptor cDNA linked to a TEV protease site and a Gal4-VP16 transcription factor integrated into the Tango™ GPCR-bla U2OS parental cell line. This parental cell line stably expresses a beta-arrestin/TEV protease fusion protein and the beta-lactamase (bla) reporter gene under the control of a UAS response element. Upon LPA (agonist) binding, LPA1 receptor gets activated, leading to arrestin-protease recruitment and proteolytic release of the transcription factor: The transcription factor then regulates transcription of a beta-lactamase reporter construct, which is measured upon addition of the live-cell substrate.10′000 Tango™ EDG2-bla U2OS cells are seeded in a 384-well black with clear bottom plate in 30 μl Freestyle 293 Expression Medium (Invitrogen) and incubated for 20 h at 37° C., 5% CO2. […] IC50 is the concentration of antagonist inhibiting 50% of the maximal response.

Chain of Lysophosphatidic acid receptor 1 (Q92633 whole entry, the tested form may be a part): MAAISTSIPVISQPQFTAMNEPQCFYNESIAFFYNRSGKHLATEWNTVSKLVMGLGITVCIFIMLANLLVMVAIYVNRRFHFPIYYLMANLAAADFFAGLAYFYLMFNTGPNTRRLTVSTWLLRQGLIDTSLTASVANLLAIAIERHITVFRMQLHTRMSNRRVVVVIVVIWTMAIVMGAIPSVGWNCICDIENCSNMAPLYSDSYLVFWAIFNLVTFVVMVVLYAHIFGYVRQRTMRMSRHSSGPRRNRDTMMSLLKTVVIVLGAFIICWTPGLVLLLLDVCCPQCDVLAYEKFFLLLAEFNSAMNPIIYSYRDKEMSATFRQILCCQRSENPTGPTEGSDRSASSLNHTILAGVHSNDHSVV

As usually defined, the IC50 is the midpoint of a concentration-inhibition curve. Low readings indicate inhibition by little substance, high ones a need for much substance. Regarding `Cc1ccc(NC(=O)C2(c3ccccc3C(C)C)CN(CCC#N)C2)c(OC(F)F)n1` [US12344597, Example 11-16], the midpoint of inhibition, the IC50, lay at 4 nM.
